This assay has as its system Staphylococcus aureus. Format: cell-based. The settings on record: vs water. As for the experimental part: These compounds are chosen so that the decimal logarithm of the mean number of viable bacteria adhering to reconstructed epidermis, after a test consisting in bringing the said epidermis into contact with the test compound for 2 hours at 37° C., is at least 0.3 less than that obtained by a test carried out with water under the same conditions.
The reconstructed epidermis used in the test indicated above is reconstructed human epidermis, equivalent to human skin, sold by EPISKIN.
The antiadhesion test corresponds to the protocol below:
Before bacterial adhesion, the reconstructed epidermis is brought into contact for 2 hours with 25 mg of the product to be tested at 37° C. 1 ml of bacterial suspension of Staphylococcus aureus at a concentration of […] in Tryptone salt is then added thereto. After incubating for 24 hours at 37° C., the bacterial suspension is emptied and five rinsings are carried out with 1 ml of sterile distilled water. The epidermis, detached from its support, is then ground with the aid of a food processor in 18 ml of Tryptone salt. A decimal dilution is carried out on this suspension in Tryptone salt, and 1 ml of the dilution is then inoculated into 15 ml of Trypticase Soy agar and the medium is incubated for 24 hours at 37° C. The adherent and viable cells are then counted.
This antiadhesion test makes it possible to evaluate the efficacy of molecules alone or of finished products.
The figures presented opposite the compound correspond to the reduction of the decimal logarithm of the mean number of viable Staphylococcus aureus adhering to reconstructed epidermis after treatment with the compound under the conditions defined by the preceding test compared with the decimal logarithm of the mean number of viable Staphylococcus aureus adhering to reconstructed epidermis after treatment with water under the same conditions.

[1] abbreviates: reconstructed human epidermis (EPISKIN) contacted 2 hours at 37° C. with 25 mg product, then 24 hours with bacterial suspension.

The record followed here is patent US20040047885A1, “Use of compounds which make it possible to modify the physicochemical properties of the skin and/or the mucous membranes as agents preventing or reducing the adhesion of microorganisms to the latter” (priority 2000, published 2004).

Where two headings read alike, the source gives them in different places.

For the compound `CCCCCCCCOC(=O)CCCCC(=O)OCCCCCCCC` [Dioctyl adipate], the “reduction of the decimal logarithm of the mean number of viable Staphylococcus aureus adhering to reconstructed epidermis compared with water” value (“reduction of the decimal logarithm … with water” below) under setting [1] worked out at 0.90.

Consider Disodium cocoamphodiacetate, for which the “reduction of the decimal logarithm … with water” value under setting [1] amounted to 1.34.

On to “Ricinoleic monoethanolamide monosulphosuccinate salt”, for which the “reduction of the decimal logarithm … with water” value (tested at 5% active substance, epidermis contacted 2 hours at 37° C.) amounted to 3.84.

For the compound Tartrate of branched C12-C13 dialcohols, the “reduction of the decimal logarithm … with water” value under setting [1] came out at 2.31.
